Data on ten molecules can be found in ChEMBL document CHEMBL4043185, “Discovery of non-zwitterionic aryl sulfonamides as Nav1.7 inhibitors with efficacy in preclinical behavioral models and translational measures of nociceptive neuron activation” (Bioorg Med Chem, 2017).

Data set [1] can be described thus: physchem. To be noted: PAMPA, pH 7.4.
Data set [2] can be described thus: physchem. The following applies: PAMPA, pH 5.5.
Data set [3] can be described thus: Plasma concentration in mouse model of complete Freund's adjuvant-induced inflammatory pain at 10 mg/kg, po measured after 90 mins post dose. The data set is classed as ADME, organism-based.
The test system of data set [4] is Plasma. In words: Unbound plasma concentration in mouse model of chronic constriction injury-induced cold hyperalgesia at 100 mg/kg, po dosed 30 mins before testing starting 5 weeks after surgery. It counts as ADME, organism-based. The following applies: in vivo.
Data set [5] can be described thus: Plasma concentration in mouse at 100 mg/kg, po measured after 90 mins post dose. It counts as ADME, organism-based.
For data set [6], the system named is Plasma. As to the kind of experiment: Unbound plasma concentration in mouse model of nociceptive flexion reflex 10 mg/kg, ip measured after 60 mins post dose. It counts as ADME, organism-based. The following applies: in vivo, 1 h.
Data set [7] relates to Plasma. In words: Unbound plasma concentration in mouse model of complete Freund's adjuvant-induced inflammatory pain at 60 mg/kg, po measured after 90 mins post dose. The following applies: in vivo, 1.5 h. The data set is classed as ADME, organism-based.
Data set [8] can be described thus: Volume of distribution at steady state in mouse at 2 mg/kg, iv. The data set is classed as ADME, organism-based. To be noted: in vivo, read-out: Vdss.
The nature of data set [9]: Oral bioavailability life in mouse at 30 mg/kg. The following applies: in vivo. The data set is classed as ADME, organism-based.
Data set [10] can be described thus: Plasma concentration in mouse at 30 mg/kg, po measured after 30 mins post dose. The data set is classed as ADME, organism-based.
A short description of data set [11]: Unbound drug concentration in mouse dorsal root ganglion at 30 mg/kg, po measured after 30 mins post dose. It counts as ADME, organism-based. To be noted: in vivo, 0.5 h.
Data set [12] is described as follows: Ratio of drug level in brain to plasma of mouse at 100 mg/kg, po measured after 90 mins post dose. It counts as ADME, organism-based. To be noted: read-out: BPR.
Data set [13] can be described thus: Plasma concentration in mouse model of complete Freund's adjuvant-induced inflammatory pain at 30 mg/kg, po measured after 90 mins post dose. It counts as ADME, organism-based.
The nature of data set [14]: Drug concentration in brain of mouse model of complete Freund's adjuvant-induced inflammatory pain at 60 mg/kg, po measured after 90 mins post dose. The data set is classed as ADME, organism-based. The following applies: read-out: Drug uptake.
Data set [15] is described as follows: Drug concentration in dorsal root ganglion of mouse model of formalin-induced persistent pain at 30 mg/kg, po measured after 90 mins post dose. The following applies: read-out: Drug uptake. The data set is classed as ADME, organism-based.
Data set [16] deals with Plasma. In words: Unbound plasma concentration in mouse model of formalin-induced persistent pain at 30 mg/kg, po measured after 90 mins post dose. The data set is classed as ADME, organism-based. To be noted: in vivo, 1.5 h.
The nature of data set [17]: Plasma concentration in mouse model of nociceptive flexion reflex 10 mg/kg, ip measured after 60 mins post dose. It counts as ADME, organism-based.
Data set [18] concerns Plasma. As to the kind of experiment: Unbound plasma concentration in mouse model of complete Freund's adjuvant-induced inflammatory pain at 30 mg/kg, po measured after 90 mins post dose. The data set is classed as ADME, organism-based. To be noted: in vivo, 1.5 h.
Data set [19] has as its system Plasma. In words: Unbound plasma concentration in mouse at 30 mg/kg, po measured after 30 mins post dose. The following applies: in vivo, 0.5 h. It counts as ADME, organism-based.
The nature of data set [20]: Unbound drug concentration in dorsal root ganglion of mouse model of formalin-induced persistent pain at 30 mg/kg, po measured after 90 mins post dose. The following applies: in vivo, 1.5 h. It counts as ADME, organism-based.
Data set [21] concerns Plasma. As to the kind of experiment: Plasma concentration in mouse model of chronic constriction injury-induced cold hyperalgesia at 100 mg/kg, po dosed 30 mins before testing starting 5 weeks after surgery. The data set is classed as ADME, organism-based. The following applies: in vivo.
The nature of data set [22]: Drug concentration in mouse dorsal root ganglion at 30 mg/kg, po measured after 30 mins post dose. It counts as ADME, organism-based. The following applies: read-out: Drug uptake.
The nature of data set [23]: Drug concentration in mouse brain at 100 mg/kg, po measured after 30 mins post dose. The data set is classed as ADME, organism-based. To be noted: read-out: Drug uptake.
Data set [24] in a line: Ratio of drug level in brain to plasma of mouse at 100 mg/kg, po measured after 30 mins post dose. It counts as ADME, organism-based. The following applies: read-out: BPR.
Data set [25] in a line: Drug concentration in mouse trigeminal ganglion at 30 mg/kg, po measured after 30 mins post dose. It counts as ADME, organism-based. To be noted: read-out: Drug uptake.
Data set [26] can be described thus: Plasma concentration in mouse model of formalin-induced persistent pain at 30 mg/kg, po measured after 90 mins post dose. It counts as ADME, organism-based.
Data set [27] is described as follows: Drug concentration in brain of mouse model of complete Freund's adjuvant-induced inflammatory pain at 30 mg/kg, po measured after 90 mins post dose. It counts as ADME, organism-based. To be noted: read-out: Drug uptake.
The nature of data set [28]: Cmax in mouse at 30 mg/kg, po. The data set is classed as ADME, organism-based. Also on record: dose 30 mg/kg, route oral. To be noted: in vivo.
Data set [29] has as its system Plasma. As to the kind of experiment: Unbound plasma concentration in mouse model of complete Freund's adjuvant-induced inflammatory pain at 10 mg/kg, po measured after 90 mins post dose. It counts as ADME, organism-based. To be noted: in vivo, 1.5 h.
Data set [30] can be described thus: Plasma concentration in mouse model of complete Freund's adjuvant-induced inflammatory pain at 60 mg/kg, po measured after 90 mins post dose. The data set is classed as ADME, organism-based.
Data set [31] is described as follows: Drug concentration in mouse brain at 100 mg/kg, po measured after 90 mins post dose. To be noted: read-out: Drug uptake. It counts as ADME, organism-based.
Data set [32] can be described thus: Plasma concentration in mouse at 100 mg/kg, po measured after 30 mins post dose. It counts as ADME, organism-based.
Data set [33] in a line: Half life in mouse at 30 mg/kg, po. The following applies: in vivo. It counts as ADME, organism-based.
For data set [34], the system named is Plasma. As to the kind of experiment: Unbound plasma concentration in mouse model of nociceptive flexion reflex 30 mg/kg, ip measured after 60 mins post dose. It counts as ADME, organism-based. The following applies: in vivo, 1 h.
Data set [35] is described as follows: Drug concentration in trigeminal ganglion of mouse model of formalin-induced persistent pain at 30 mg/kg, po measured after 90 mins post dose. The data set is classed as ADME, organism-based. The following applies: read-out: Drug uptake.
Data set [36] in a line: Drug concentration in brain of mouse model of complete Freund's adjuvant-induced inflammatory pain at 10 mg/kg, po measured after 90 mins post dose. The data set is classed as ADME, organism-based. To be noted: read-out: Drug uptake.
Data set [37] in a line: Plasma concentration in mouse model of nociceptive flexion reflex 30 mg/kg, ip measured after 60 mins post dose. The data set is classed as ADME, organism-based.
Data set [38] is described as follows: Clearance in mouse at 2 mg/kg, iv. The following applies: in vivo. The data set is classed as ADME, organism-based.
The conditions of data set [39]: PAMPA, pH 5.5. In general terms: In PAMPA a lipid-coated filter parts donor from acceptor wells.

Each structure is given as a SMILES string.

For the molecule `O=S(=O)(Nc1nccs1)c1cc(Cl)c(NC[C@H]2CC[C@@H](O)CC2)cc1F`, the values for the Papp in “physchem [1]” and in “physchem [2]” were 10.1 ×10⁻⁶ cm/s and 46.4 ×10⁻⁶ cm/s, respectively.

Take `O=S(=O)(Nc1nccs1)c1cc(Cl)c(NC[C@H]2CCCOC2)cc1F`: the concentration at 1.5 h is 750 nM in data set [3]; 3670 nM in data set [5]; 1130 nM in [13]; below 25 nM in data set [14]; 660 nM in data set [15]; 7300 nM in data set [26]. Moreover, the concentration at 1.5 h in [27] is below 25 nM; in data set [30] it was 2560 nM; in [31], 42 nM; in data set [35], 5000 nM; in data set [36] it was below 25 nM. In addition, the “Cp(f)” value with Plasma [4] is 740 nM; in the data set on Plasma [6], 660 nM; with Plasma [7] it was 59 nM; in the data set with Plasma [16] it was 170 nM; in the data set with Plasma [18], 26 nM; in the data set on Plasma [19] it was 300 nM. The results for the “Cp(f)” value with Plasma [29] and in the data set with Plasma [34] were 17 nM and 1900 nM, respectively. Also, in [8], the Vd was determined as 0.6 L/kg. In addition, the bioavailability – broadly, dose-corrected exposure relative to a reference, in per cent – in [9] came out at 47%. Also, the concentration at 0.5 h in [10] was determined as 13000 nM; in data set [22], 1100 nM; in data set [23], 120 nM; in data set [25] it was 5800 nM; in [32] it was 7340 nM. Besides, the “Drug uptake(free)” value in data set [11] is 0.11 µM; in [20], 0.07 µM. Further, the Kp at 1.5 h in data set [12] is 0.012. Further, the concentration at 1 h in [17] is 29000 nM; in [37] it was 82000 nM. Moreover, the Papp (as a rule, a coefficient for how fast a substance crosses the barrier) in “physchem [1]” is 37.7 ×10⁻⁶ cm/s; in the data set “physchem [2]”, 47.7 ×10⁻⁶ cm/s. Further, the concentration with Plasma [21] was determined as 32000 nM. In [24], the Kp at 0.5 h came out at 0.017. The Cmax (as a rule, the maximum level reached in the sampled fluid or tissue) in [28] came to 37000 nM. The half-life (as a rule, the time in which the quantity being followed falls by half) in data set [33] was 3 h. The clearance (commonly a measure of how efficiently the substance is removed, as volume per time) in data set [38] is 13 mL/min/kg.

In the case of `O=S(=O)(Nc1nccs1)c1cc(Cl)c(NCC2CCCC3(C2)OCCO3)cc1F` (stereo not given), the results for the Papp in the data set “physchem [1]” and in the data set “physchem [2]” were 41.9 ×10⁻⁶ cm/s and 45.1 ×10⁻⁶ cm/s, respectively.

In the case of `O=S(=O)(Nc1nccs1)c1cc(Cl)c(NC[C@H]2CC[C@H](O)CC2)cc1F`, the results for the Papp in “physchem [1]” and in “physchem [2]” were 20.7 ×10⁻⁶ cm/s and 54.6 ×10⁻⁶ cm/s, respectively.

`O=S(=O)(Nc1nccs1)c1cc(Cl)c(NCC2CCCCO2)cc1F` (stereo not given): the Papp in the data set “physchem [1]” and in the data set “physchem [2]” was 61 ×10⁻⁶ cm/s throughout.

Regarding `CC(C)(C)[C@H]1OCCC[C@@H]1CNc1cc(F)c(S(=O)(=O)Nc2nccs2)cc1Cl` (racemic), the Papp entry in data set [39] was “Not Active”; in the data set “physchem [1]”, 67.7 ×10⁻⁶ cm/s.

Turning to `CC(C)(C)[C@@H]1OCCC[C@@H]1CNc1cc(F)c(S(=O)(=O)Nc2nccs2)cc1Cl` (racemic), in “physchem [1]”, the Papp came out at 43.9 ×10⁻⁶ cm/s.

Consider `O=S(=O)(Nc1nccs1)c1cc(Cl)c(NC[C@H]2CCC[C@H](O)C2)cc1F` (racemic), for which the Papp in “physchem [1]” was 16.2 ×10⁻⁶ cm/s; in “physchem [2]”, 21.6 ×10⁻⁶ cm/s.

Regarding `O=S(=O)(Nc1nccs1)c1cc(Cl)c(NC[C@H]2CCC[C@@H](O)C2)cc1F` (racemic), the Papp in “physchem [1]” came out at 16.2 ×10⁻⁶ cm/s; in the data set “physchem [2]”, 21.6 ×10⁻⁶ cm/s.

With `O=S(=O)(Nc1nccs1)c1cc(Cl)c(NC[C@H]2CCCO[C@@H]2c2ccccc2)cc1F` (racemic), the Papp is 73.5 ×10⁻⁶ cm/s in “physchem [1]” and 42.8 ×10⁻⁶ cm/s in “physchem [2]”.
